Reference: US6664279B2, “Remedies or preventives for liver diseases containing diaminotrifluoromethylpyridine derivatives” (Ishihara Sangyo Kaisha, Ltd., priority 2000, dated 2003)

Tests used:
[1] = test system: acetaminophen (APAP) induced mouse hepatopathy model; test: Therapeutic effect on mouse acetaminophen hepatopathy model; type: in vivo
From the text: Therapeutic Effect on Mouse Acetaminophen Hepatopathy Model
The therapeutic effect of N-(2-ethylsulfonylamino-5-trifluoromethyl-3-pyridyl)cyclohexanecarboxamide sodium salt hydrate (hereinafter referred to as compound 1) on acetaminophen (APAP) induced mouse hepatopathy model was examined.
To Crj: CD-1(ICR) male mice (6 weeks old) (Charles River Japan Inc.), APAP (Lot. No. 107H0332, manufactured by Sigma) dissolved with physiological saline (Lot No. 80909D manufactured by Fuso Pharmaceutical Industries, Ltd.) was intraperitoneally administered in an amount of the active ingredient of 300 mg/kg to induce hepatopathy. 3 Hours after the administration of APAP, the compound 1 dissolved in physiological saline was singly administered subcutaneously on the back in an amount of the active ingredient of 10 mg/kg. To non-treated group mice, physiological saline was similarly administered. 6 Hours after the administration of APAP, the blood was collected, and glutamic-oxaloacetic transaminase (GOT) and glutamic-pyruvic transaminase (GPT) values in the blood serum were measured.
In the present test, mice were kept on a fast from 20 hours before the administration of APAP until the completion of the test.

[2] = test system: rat liver ischemia reperfusion hepatopathy model; test: Therapeutic effect on rat liver ischemia reperfusion hepatopathy model; type: in vivo
From the text: Therapeutic Effect on Rat Liver Ischemia Reperfusion Hepatopathy Model
The therapeutic effect of the compound 1 on rat hepatopathy model induced by partially subjecting the liver to ischemia reperfusion was examined.
(1) The compound 1 was used as a drug formulation. The formulation composition (content per one vial) was as follows.
(2) Crj:SD (IGS) male rats (7 weeks old) (Charles River Japan, Inc.) were anesthetized with ether, and while maintaining them anesthetized with gas-oxygen fluothane, the above drug formulation of the compound 1 diluted with 5% glucose (Lot. 9I78N, manufactured by Otsuka Pharmaceutical Factory, Inc.) so that the dose would be 10 mg/kg/hr as calculated as anhydride of the compound 1, was subcutaneously administered singly. Then, an osmotic pump (alzet osmotic pump 2001D, ALZA CORPORATION, U.S.A.) in which the above drug formulation of the compound 1 diluted with 5% glucose (Lot. 9I78N, manufactured by Otsuka Pharmaceutical Factory, Inc.) so that the dose would be 0.3 mg/kg/hr as calculated as anhydride of the compound 1 was put, was embedded in the dorsal cervical subcutaneous. To non-treated group rats, 5% glucose alone was administered similarly. […] The abdomen was closed, the rats were awaked, and after 90 minutes, the abdomen was opened up again under the above-described anesthesia, the clamp was removed and the rats were subjected to reperfusion. To pseudo-induced group rats, operation except for the ischemia reperfusion treatment was carried out. The abdomen was closed and the rats were awaked, and 6 hours after the reperfusion, aspartate aminotransferase (AST) and alanine aminotransferase (ALT), lactate dehydrogenase (LDH) and total bilirubin values in the blood serum were measured.

[3] = Crj:CD-1(ICR) male mice, APAP 300 mg/kg i.p., 10 mg/kg s.c. single dose 3 hours after APAP, blood 6 hours after APAP, N = 5
[4] = Crj:SD (IGS) male rats, 90 minutes ischemia of about 70% of liver, 10 mg/kg/hr s.c. singly then 0.3 mg/kg/hr by osmotic pump, 6 hours after reperfusion, N = 10

SMILES: CCS(=O)(=O)Nc1ncc(C(F)(F)F)cc1NC(=O)C1CCCCC1.O.[Na] [compound 1, N-(2-ethylsulfonylamino-5-trifluoromethyl-3-pyridyl)cyclohexanecarboxamide sodium salt hydrate]
- GOT in blood serum (mean ± standard deviation) [1, 3]: 530 ± 212 IU/L
- GPT in blood serum (mean ± standard deviation) [1, 3]: 807 ± 603 IU/L
- Effect on hepatopathy (increases in biochemical examination values), in words ([1]; acetaminophen induced mouse hepatopathy model, 10 mg/kg s.c., versus non-treated group): hepatopathy was alleviated
- ALT (GPT) in blood serum (mean) [2, 4]: 5436 IU/L
- AST (GOT) in blood serum (mean) [2, 4]: 8669 IU/L
- LDH in blood serum (mean) [2, 4]: 29601 IU/L
- Total bilirubin in blood serum (mean) [2, 4]: 0.299 mg/dL
- Effect on hepatopathy (increases in biochemical examination values), in words ([2]; rat ischemia reperfusion hepatopathy model, versus non-treated group): alleviated
